Results: patent US20130129656A1, “"GREEN" DIESTER AMINES AND PERSONAL CARE PRODUCTS” (CRODA, INC., priority 2010, published 2013)

Legend:
[1] = Wet combing evaluation of lotions (combing force reduction)
Procedure: Lotions with and without Example 3 Quat were prepared and evaluated for combing force reduction.

[2] = Biodegradability via method OECD 301B; conditions: after 29 days
Source text: In some embodiments, the compounds of the present invention are biodegradable as provided by standardized OECD 301B testing. The testing methodology is described in the “OECD Guideline for Testing Chemicals,” section 301, the disclosure of which is incorporated by reference. Specifically, the compounds of the present invention showing a biodegradability of at least about 50% according to the OECD 301B testing method. In some embodiments, the compounds of the present invention have a biodegradability of between about 50% to about 81% according to the OECD 301B testing method.
(§1) Quat from example 3 was tested for biodegradability via method OECD 301B and Aquatic Toxicity via method OECD 202.

[3] = system: daphnia magna; experiment: Aquatic toxicity via method OECD 202 (Daphnia sp. Acute Immobilization Test); assay type: in vivo; conditions: OECD 202, daphnia magna
Procedure: In some embodiments, the compounds of the present invention are believed to have low aquatic toxicities. […] […] The testing methodology is described in “OECD Guideline for Testing of Chemicals,” section 202, the disclosure of which is incorporated by reference.
as §1

[4] = Warehouse storage stability of flaked samples in a stability oven at 95° F; assay type: physicochemical; conditions: flaked sample, stability oven set at 95° F, after 8 weeks
Procedure: The diester compositions may be blended with, for example, alkylamidopropyl dimethylamines, such as Incromine BD supplied by Croda Inc., to yield a waxy flakeable or pastillatable composition with improved high temperature warehouse storage stability. Stability in this case being defined as resistance of the waxy particles from fusing together at elevated warehouse storage temperatures of about 95° F. Additional information on flakeability/pastillatability can be found in U.S. Pat. No. 6,638,497, the disclosure of which is hereby incorporated by reference herein.
In some embodiments, it is desirable that the diesters of the claimed invention be either liquids or waxy solids in pastille form at room temperature for ease of use. […] By adding behenamidopropydimethylamine, the high temperature storage stability of the diester was increased, allowing for it to be warehoused or transported in conditions were the temperature can exceed 95° F. without the pastilles fusing together.

[5] = wet combing, lotion with 1.5 % Example 3 Quat, average of 10 tresses

Substance: Methosulfate QUAT of PPG-6 N-Methyldiethanolamine Di-Behenate [Example 3]
- Conditioning (in words) ([1]; lotion with the quat, versus lotion without): improved conditioning
- % Change of Combing Force (gmf) [1, 5]: −84.62%
- % Change of Total Work Done (Joules) [1, 5]: −88.76%
- Biodegraded [2]: 67%
- 48 hour EC50 (aquatic toxicity) [3]: > 100 µg/mL
- Warehouse storage stability (state of flakes) [4]: fused together
